ChEMBL document CHEMBL1133956, “Antagonists of the human CCR5 receptor as anti-HIV-1 agents. Part 3: a proposed pharmacophore model for 1-[N-(methyl)-N-(phenylsulfonyl)amino]-2-(phenyl)-4-[4-(substituted)piperidin-1-yl]butanes” (Bioorg Med Chem Lett, 2001)
pIC50: −log10 of the molar value.

Key:
Type in all cases: cell-based
[1] = target: T1, C-C chemokine receptor type 5 (Homo sapiens, UniProt P51681); test: Inhibition of [125I]-MIP-1 alpha binding to human CCR5 receptor expressed in Chinese hamster ovary (CHO) cells
Target sequence in this assay (P51681 whole entry): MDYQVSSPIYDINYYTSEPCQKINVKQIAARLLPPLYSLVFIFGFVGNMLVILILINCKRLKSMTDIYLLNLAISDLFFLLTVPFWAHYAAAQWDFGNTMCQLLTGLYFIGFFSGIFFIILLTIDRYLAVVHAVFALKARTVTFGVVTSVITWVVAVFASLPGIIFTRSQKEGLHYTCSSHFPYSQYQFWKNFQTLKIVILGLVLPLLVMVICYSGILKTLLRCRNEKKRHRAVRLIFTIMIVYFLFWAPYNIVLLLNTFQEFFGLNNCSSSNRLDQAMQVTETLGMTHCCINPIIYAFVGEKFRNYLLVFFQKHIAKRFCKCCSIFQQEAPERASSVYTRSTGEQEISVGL

[2] = target: T1, C-C chemokine receptor type 5; test: Inhibition of [125I]-MIP-1 alpha binding to human CCR5 receptor expressed in Chinese hamster ovary (CHO) cells; completely inactive
Target sequence in this assay (P51681 whole entry): as above

[3] = target: T1, C-C chemokine receptor type 5; test: Inhibition of [125I]-MIP-1 alpha binding to human CCR5 receptor expressed in Chinese hamster ovary (CHO) cells at 1000 nM;
Target sequence in this assay (P51681 whole entry, looked up): as the sequence (P51681 whole entry) above

[4] = target: T1, C-C chemokine receptor type 5; test: Inhibition of [125I]-MIP-1 alpha binding to human CCR5 receptor expressed in Chinese hamster ovary (CHO) cells at 1000 nM
Target sequence in this assay (P51681 whole entry, looked up): as the sequence (P51681 whole entry) above

pIC50 [1]	Compound	also measured
7.46	CN(C[C@@H](CCN1CCC2(CC1)CNC(=O)c1ccccc12)c1cccc(Cl)c1)S(=O)(=O)c1ccccc1	
6.59	CN(C[C@@H](CCN1CCC2(CC1)Cc1ccccc1O2)c1cccc(Cl)c1)S(=O)(=O)c1ccccc1	
7.35	CN(C[C@@H](CCN1CCC2(CC1)NC(=O)c1ccccc12)c1cccc(Cl)c1)S(=O)(=O)c1ccccc1	
7.46	CN(C[C@@H](CCN1CCC2(CC1)CC(=O)Nc1ccccc12)c1cccc(Cl)c1)S(=O)(=O)c1ccccc1	
8.30	CN(C[C@@H](CCN1CCC(CCCc2ccccc2)CC1)c1cccc(Cl)c1)S(=O)(=O)c1ccccc1	
	CN(CCc1ccccc1)CC[C@H](CN(C)S(=O)(=O)c1ccccc1)c1cccc(Cl)c1	pIC50 [2]: < 5.00
6.92	CN(C[C@@H](CCN1CCC(c2cccc(C(F)(F)F)c2)CC1)c1cccc(Cl)c1)S(=O)(=O)c1ccccc1	
7.00	CN1C(=O)c2ccccc2C12CCN(CC[C@H](CN(C)S(=O)(=O)c1ccccc1)c1cccc(Cl)c1)CC2	
	CN(C[C@@H](CCc1ccc(-c2ccccc2)cn1)c1ccc(Cl)c(Cl)c1)S(=O)(=O)c1ccccc1	pIC50 [2]: < 5.00
6.60	CN(C[C@@H](CCN1CCC(Cc2ccccc2)CC1)c1cccc(Cl)c1)S(=O)(=O)c1ccccc1	
7.15	COc1ccccc1C1CCN(CC[C@H](CN(C)S(=O)(=O)c2ccccc2)c2cccc(Cl)c2)CC1	
6.40	Cc1ccccc1C1CCN(CC[C@H](CN(C)S(=O)(=O)c2ccccc2)c2cccc(Cl)c2)CC1	
6.15	CN(C[C@@H](CCN1CCN(c2ccccc2)CC1)c1cccc(Cl)c1)S(=O)(=O)c1ccccc1	
	CN(C[C@@H](CCN1CCC2(CC1)CC(=O)c1ccccc1O2)c1cccc(Cl)c1)S(=O)(=O)c1ccccc1	inhibition [3]: 24%
5.62	Cc1ccccc1N1CCN(CC[C@H](CN(C)S(=O)(=O)c2ccccc2)c2cccc(Cl)c2)CC1	
8.30	CN(C[C@@H](CCN1CCC2(CC1)CC(=O)c1ccccc12)c1cccc(Cl)c1)S(=O)(=O)c1ccccc1	
	CN(C[C@@H](CCN1CCC(C(C)(C)C)CC1)c1cccc(Cl)c1)S(=O)(=O)c1ccccc1	inhibition [4]: 40%
	CN(C[C@@H](CCNCCc1ccccc1)c1cccc(Cl)c1)S(=O)(=O)c1ccccc1	pIC50 [2]: < 5.00
7.60	CN(C[C@@H](CCN1CCC(c2ccc(F)cc2)CC1)c1cccc(Cl)c1)S(=O)(=O)c1ccccc1	
7.30	CN(C[C@@H](CCN1CCC2(CC1)CNc1ccccc12)c1cccc(Cl)c1)S(=O)(=O)c1ccccc1	
7.19	CN(C[C@@H](CCN1CCC(CCc2ccccc2)CC1)c1cccc(Cl)c1)S(=O)(=O)c1ccccc1	
	CN(C[C@@H](CCN1CCCCC1)c1cccc(Cl)c1)S(=O)(=O)c1ccccc1	inhibition [4]: 27%
	CN(C[C@@H](CCN1CCC2(CC1)CN(S(C)(=O)=O)c1ccccc12)c1cccc(Cl)c1)S(=O)(=O)c1ccccc1	inhibition [4]: 12%
7.00	CN(C[C@@H](CCN1CCC2(CC1)CC(O)c1ccccc12)c1cccc(Cl)c1)S(=O)(=O)c1ccccc1 (some centres not stated)	
6.74	CN(C[C@@H](CCN1CCC2(CCc3ccccc32)CC1)c1cccc(Cl)c1)S(=O)(=O)c1ccccc1	
	CN(C[C@@H](CCc1ccc(-c2ccccc2)cc1)c1ccc(Cl)c(Cl)c1)S(=O)(=O)c1ccccc1	pIC50 [2]: < 5.00
6.70	CN(C[C@@H](CCN1CCC(c2ccc(Cl)cc2)CC1)c1cccc(Cl)c1)S(=O)(=O)c1ccccc1	
